Measurements published in article PMC11542593, “Vascular endothelial growth factor receptor 2 as a potential host target for the inhibition of enterovirus replication” (Journal of Virology, 2024).
Structures can show the parent of a compound that is named as a salt.

Tests used:
EV-A71 [1] = assay: Cytopathic effect (CPE) inhibition assay in RD cells; assay type: cell-based, Human enterovirus A71; details: EV-A71, RD cells; for EC50: Enterovirus A, EVA71, read-out: EC50, compound concentration required to achieve 50% protection from virus-induced cytopathogenicity
in vitro = details: human
Procedure: Fig. S1. (A) RD cells were treated with the indicated concentrations of inhibitors and incubated at 37°C for 24 h. CellTiter‐Glo® luminescent cell viability assay was used to measure the CC50 of selected inhibitors. […] (B) RD cells treated with the selected inhibitors (10 μM) were inoculated with EV-A71 at an MOI of 0.01. At 48 hpi, cells were harvested to detect the expression level of VP1 by western blotting.

EV-A71 [2] = assay: Viral load reduction assay in RD cells (RT-qPCR, TCID50, VP1 Western blot); assay type: cell-based, Human enterovirus A71; details: for EV-A71 viral load and viral titer, dose dependence: indicated noncytotoxic concentrations, MOI 0.1, 24 h; for EV-A71 viral load and viral titer in cell lysates and supernatant: 10 μM, MOI 0.01, 24 h
Procedure: Detection of cellular mRNA expression and viral load was performed as described previously ([24]). In brief, the infected or mock-infected cells were lysed and applied to total RNA extraction by using the MiniBEST Universal RNA Extraction Kit (TaKaRa, Code No.9767). Viral RNA in the supernatant was extracted with the MiniBEST Viral RNA Extraction Kit (TaKaRa, Code No.9766). Reverse transcription was performed using the PrimeScript RT reagent Kit (TaKaRa, Code No.PR037A) with an oligo (dT) primer. The resultant cDNAs were used for qPCR assay with the Light Cycler 480 SYBR Green I Master Mix (Roche) to measure the mRNA expression level of cellular genes or viral load in supernatants. The relative viral gene copy was determined by RT-qPCR, using GAPDH as an internal reference.
The viral titer in the indicated samples was determined by TCID50 assay as described previously ([25]). Briefly, serially diluted samples from 10^−1 to 10^−8 in DMEM were inoculated to RD cells, BGMK cells, or MRC-5 in 96‐well plates. The cells were then incubated for 2 to 3 days at 37°C. TCID50 was calculated by counting the wells with cytopathic effect in infected cells using the Reed–Muench method.
(§1) Western blot analysis was performed as described previously ([26]). In brief, the indicated cell samples were lysed in RIPA buffer supplemented with protease inhibitors (Thermo Fisher Scientific, 78430). The cell lysates were then separated in 10% SDS-PAGE and transferred to a 0.45-µm nitrocellulose membrane. After blocking, the membrane was incubated with an against VP1 antibody (GeneTex, GTX132339), VEGFR1 antibody (Abcam, ab32152), VEGFR2 antibody (Abcam, ab134191), phosphorylated VEGFR2 antibody (Tyr951) (CST 4991), VEGFR3 antibody (Beyotime, AF6918), Akt antibody (CST 4685), phosphorylated Akt antibody (CST 4060), or GAPDH antibody (GeneTex, GTX627408) diluted 1:5,000 in primary antibody dilution buffer overnight at 4°C, followed by corresponding secondary staining. The blots were visualized by western horseradish peroxidase substrate and imaged with Gel Doc XR+.
The results represent cell viability in the EV-A71-infected RD cells or 2D human intestinal organoids treated with DMSO (Negative control), Pirodavir (Positive control), or indicated VEGFR inhibitor (10 µM) relative to those in mock-infected RD cells or 2D human intestinal organoids. […] Significant inhibition of EV-A71 infection was found for both cell lysate (left) and supernatant (right) using RT-qPCR analysis. The results represent the viral load in the cells treated with indicated inhibitors relative to that in DMSO-treated cells. (C) Viral titer was also determined for inhibitor-treated samples in TCID50 assays. […] (D) Representative images of immunofluorescence assay for selected inhibitors using Rabbit anti‐VP1 antibody (green). Nuclei are counterstained with DAPI (blue). Scale bar, 50 µm.
Nuclei are counterstained with DAPI (blue). Scale bar, 50 µm.
Fig. S2. […] The results represent the viral load in the cells treated with indicated concentration of VEGFR inhibitors relative to that in DMSO-treated cells. Viral titer was also determined for samples treated with indicated concentrations of VEGFR inhibitors in TCID50 assays.
(§2) Fig. S7. Viral reduction in RD cells with Src inhibitor treatment. […] Significant inhibition of EV-A71 infection was found for both cell lysate (left) and supernatant (middle) using RT-qPCR analysis. The results represent the viral load in the cells treated with Dasatinib relative to that in DMSO-treated cells. Viral titer was also determined for inhibitor-treated samples in TCID50 assays (right). […] (C) VP1 protein levels were measured for samples treated with DMSO or Dasatinib using western blotting.
Fig. S8. Viral reduction in RD cells with Akt inhibitor treatment. […] Significant inhibition of EV-A71 infection was found for both cell lysate (left) and supernatant (middle) using RT-qPCR analysis. […]

Akt phosphorylation = assay: Western blot of phosphorylated Akt and total Akt in RD cells; assay type: cell-based; details: total Akt levels unaltered
Procedure: as §1
as §2, with “S8.” for “S7.”, “Akt” for “Src”, “MK-2206” for “Dasatinib”, “The levels of VP1, phosphorylated Akt and total Akt” for “VP1”, “protein” for “protein levels”
Fig. S9. […] (A) RD cells were infected with EV-A71 at an MOI of 1, and cell lysates were collected at the indicated times. Western blotting assays were then performed to assess the levels of phosphorylated Akt and total Akt. (B)The plasmids pVEGFR2 or pEmpty vector were transfected into RD cells. At the indicated times post-transfection, cells were harvested to detect the expression levels of phosphorylated Akt and total Akt by western blotting. […] Western blotting assays were then performed to assess the levels of phosphorylated Akt and total Akt. […] At 1 hpi, cells were harvested to detect the expression levels of phosphorylated Akt and total Akt by western blotting. […]

| EC50 (EV-A71 [1]) [µM] | Structure (SMILES) | SI (selectivity index), ratio CC50/EC50 (EV-A71 [1]) | CC50 at 24 h (in vitro) [µM] | EV-A71 viral load and viral titer, dose dependence (EV-A71 [2]) | EV-A71 viral load and viral titer in cell lysates and supernatant (EV-A71 [2]) | EV-A71 structural protein VP1 expression (Western blot) (EV-A71 [2]; vs DMSO) | Akt phosphorylation following EV-A71 infection (Akt phosphorylation) | CC50 at 24 h (in vitro; RD cells) [µM] |
| --- | --- | --- | --- | --- | --- | --- | --- | --- |
| 0.44 ± 0.08 | CCOC(=O)c1ccc(OCCC2CCN(c3ccc(C)nn3)CC2)cc1 [Pirodavir] | 120.14 | 52.9 ± 1.25 | – | – | – | – | – |
| – | Cc1nc(Nc2ncc(C(=O)Nc3c(C)cccc3Cl)s2)cc(N2CCN(CCO)CC2)n1 [Dasatinib] | – | – | – | significantly reduced | markedly decreased | – | – |
| – | NC1(c2ccc(-c3nc4ccn5c(=O)[nH]nc5c4cc3-c3ccccc3)cc2)CCC1 [MK-2206, MK-2206 dihydrochloride] | – | – | – | significantly suppressed | – | significantly inhibited Akt phosphorylation | – |
| – | CNC(=O)c1ccccc1Sc1ccc2c(/C=C/c3ccccn3)n[nH]c2c1 [Axitinib] | – | – | dose-dependent inhibition | – | – | – | 104 ± 17.6 |
| 1.73 ± 0.18 | Cc1[nH]c(/C=C2\C(=O)Nc3ccc(F)cc32)c(C)c1C(=O)NC[C@H](O)CN1CCOCC1 [SU14813] | 15.23 | – | dose-dependent inhibition | – | – | – | 26.4 ± 6.09 |

| Structure (SMILES) | EC50 (EV-A71 [1]) [µM] | SI (selectivity index), ratio CC50/EC50 (EV-A71 [1]) | CC50 at 24 h (in vitro) [µM] | EV-A71 viral load and viral titer, dose dependence (EV-A71 [2]) | EV-A71 viral load and viral titer in cell lysates and supernatant (EV-A71 [2]) | EV-A71 structural protein VP1 expression (Western blot) (EV-A71 [2]; vs DMSO) | Akt phosphorylation following EV-A71 infection (Akt phosphorylation) | CC50 at 24 h (in vitro; RD cells) [µM] |
| --- | --- | --- | --- | --- | --- | --- | --- | --- |
| Cc1cc2c(F)c(Oc3ncnn4cc(OC[C@@H](C)O)c(C)c34)ccc2[nH]1 [Brivanib] | 1.94 ± 0.33 | 21.28 | 41.3 ± 2.83 | dose-dependent inhibition | – | – | – | – |
